Experimental data reported in ChEMBL document CHEMBL3991601, “The target landscape of clinical kinase drugs” (Science, 2017).
pKd: −log10 of the molar value. Counter-ions that a name gives are not always drawn. The source made the active and inactive calls. On the calls: in the data inactive means no Kd found up to 30 µM.

Assays:
[1] = molecular target: Dual specificity protein kinase CLK3 (Homo sapiens, UniProt P49761); type: subcellular, K-562, COLO 205, SK-N-BE(2) and MV-4-11, Cell lysate; details: read-out: Kd apparent
[2] = molecular target: T1, Long-chain-fatty-acid--CoA ligase 5 (Homo sapiens, UniProt Q9ULC5)
T1 sequence (Q9ULC5 whole entry): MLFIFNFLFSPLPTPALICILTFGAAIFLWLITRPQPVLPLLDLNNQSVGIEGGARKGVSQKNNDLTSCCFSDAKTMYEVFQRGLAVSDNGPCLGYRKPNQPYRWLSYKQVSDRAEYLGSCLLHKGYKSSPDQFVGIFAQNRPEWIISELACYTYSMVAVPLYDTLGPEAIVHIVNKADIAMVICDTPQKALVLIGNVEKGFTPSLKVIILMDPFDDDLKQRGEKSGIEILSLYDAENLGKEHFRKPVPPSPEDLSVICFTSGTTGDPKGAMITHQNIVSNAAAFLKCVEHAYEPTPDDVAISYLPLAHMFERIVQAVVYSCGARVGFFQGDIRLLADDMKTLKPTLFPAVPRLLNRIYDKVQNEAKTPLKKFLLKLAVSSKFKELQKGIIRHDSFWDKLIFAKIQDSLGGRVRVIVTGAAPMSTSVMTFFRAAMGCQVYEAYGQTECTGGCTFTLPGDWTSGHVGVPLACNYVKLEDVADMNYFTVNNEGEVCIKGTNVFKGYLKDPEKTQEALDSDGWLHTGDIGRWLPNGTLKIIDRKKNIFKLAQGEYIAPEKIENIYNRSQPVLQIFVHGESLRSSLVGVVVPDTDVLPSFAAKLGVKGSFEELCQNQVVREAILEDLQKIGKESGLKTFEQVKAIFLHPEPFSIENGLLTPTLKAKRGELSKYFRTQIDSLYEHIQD

[3] = molecular target: Dual specificity protein kinase CLK4 (Homo sapiens, UniProt Q9HAZ1)
UMP-CMP kinase = molecular target: T2, UMP-CMP kinase (Homo sapiens, UniProt P30085)
T2 sequence (P30085 whole entry): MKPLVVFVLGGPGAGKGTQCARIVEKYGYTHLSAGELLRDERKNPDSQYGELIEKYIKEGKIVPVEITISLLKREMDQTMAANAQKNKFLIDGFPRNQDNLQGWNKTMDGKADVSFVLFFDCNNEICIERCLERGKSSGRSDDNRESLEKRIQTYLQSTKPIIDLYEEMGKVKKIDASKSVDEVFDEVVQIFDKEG

[4] = molecular target: T3, Electron transfer flavoprotein subunit beta (Homo sapiens, UniProt P38117)
T3 sequence (P38117 whole entry): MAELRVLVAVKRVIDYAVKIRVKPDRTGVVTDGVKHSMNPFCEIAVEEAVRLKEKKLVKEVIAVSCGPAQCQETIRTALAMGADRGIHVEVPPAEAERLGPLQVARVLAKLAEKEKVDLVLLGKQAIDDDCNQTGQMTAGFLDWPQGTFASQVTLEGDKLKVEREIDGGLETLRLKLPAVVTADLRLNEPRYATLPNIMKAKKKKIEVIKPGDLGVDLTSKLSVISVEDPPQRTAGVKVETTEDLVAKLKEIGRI

[5] = molecular target: T4, Dual specificity mitogen-activated protein kinase kinase 4 (Homo sapiens, UniProt P45985)
T4 sequence (P45985 whole entry): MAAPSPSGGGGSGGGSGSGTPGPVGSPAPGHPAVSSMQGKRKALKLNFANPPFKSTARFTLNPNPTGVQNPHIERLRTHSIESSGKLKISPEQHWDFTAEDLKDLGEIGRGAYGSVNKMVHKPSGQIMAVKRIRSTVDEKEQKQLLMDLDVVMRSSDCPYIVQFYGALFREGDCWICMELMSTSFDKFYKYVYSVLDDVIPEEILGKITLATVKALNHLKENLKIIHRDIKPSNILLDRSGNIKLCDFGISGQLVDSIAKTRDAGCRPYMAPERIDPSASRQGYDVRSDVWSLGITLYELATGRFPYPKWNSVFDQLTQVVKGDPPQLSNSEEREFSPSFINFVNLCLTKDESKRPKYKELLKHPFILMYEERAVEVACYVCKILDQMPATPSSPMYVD

[6] = molecular target: MAP kinase-activated protein kinase 3 (Homo sapiens, UniProt Q16644)
[7] = molecular target: Serine/threonine-protein kinase PAK 6 (Homo sapiens, UniProt Q9NQU5)
[8] = molecular target: Serine/threonine-protein kinase pim-2 (Homo sapiens, UniProt Q9P1W9)
[9] = molecular target: Serine/threonine-protein kinase 24 (Homo sapiens, UniProt Q9Y6E0)
[10] = molecular target: Uncharacterized aarF domain-containing protein kinase 5 (Homo sapiens, UniProt Q3MIX3)
[11] = molecular target: T5, Protein kinase C zeta type (Homo sapiens, UniProt Q05513)
T5 sequence (Q05513 whole entry): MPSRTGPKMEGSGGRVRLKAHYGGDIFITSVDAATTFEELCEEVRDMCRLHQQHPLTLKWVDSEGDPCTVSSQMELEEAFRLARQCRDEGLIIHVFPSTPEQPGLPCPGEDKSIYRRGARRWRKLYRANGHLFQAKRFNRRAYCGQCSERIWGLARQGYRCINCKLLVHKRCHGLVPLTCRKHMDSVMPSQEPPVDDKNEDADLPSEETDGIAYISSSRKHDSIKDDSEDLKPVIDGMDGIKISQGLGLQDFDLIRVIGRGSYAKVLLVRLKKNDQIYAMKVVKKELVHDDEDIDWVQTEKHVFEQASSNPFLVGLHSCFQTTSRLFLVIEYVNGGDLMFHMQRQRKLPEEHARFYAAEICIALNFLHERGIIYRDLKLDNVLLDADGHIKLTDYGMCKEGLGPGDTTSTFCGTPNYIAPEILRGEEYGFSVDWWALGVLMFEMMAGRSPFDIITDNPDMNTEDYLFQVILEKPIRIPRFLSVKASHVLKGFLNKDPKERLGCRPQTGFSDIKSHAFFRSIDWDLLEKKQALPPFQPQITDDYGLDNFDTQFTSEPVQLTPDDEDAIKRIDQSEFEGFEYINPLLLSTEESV

[12] = molecular target: Cell division cycle 7-related protein kinase (Homo sapiens, UniProt O00311)
[13] = molecular target: Serine/threonine-protein kinase Nek7 (Homo sapiens, UniProt Q8TDX7)
[14] = molecular target: Serine/threonine-protein kinase 38-like (Homo sapiens, UniProt Q9Y2H1)
Serine/threonine-protein kinase 38-like, sequence (Q9Y2H1 whole entry): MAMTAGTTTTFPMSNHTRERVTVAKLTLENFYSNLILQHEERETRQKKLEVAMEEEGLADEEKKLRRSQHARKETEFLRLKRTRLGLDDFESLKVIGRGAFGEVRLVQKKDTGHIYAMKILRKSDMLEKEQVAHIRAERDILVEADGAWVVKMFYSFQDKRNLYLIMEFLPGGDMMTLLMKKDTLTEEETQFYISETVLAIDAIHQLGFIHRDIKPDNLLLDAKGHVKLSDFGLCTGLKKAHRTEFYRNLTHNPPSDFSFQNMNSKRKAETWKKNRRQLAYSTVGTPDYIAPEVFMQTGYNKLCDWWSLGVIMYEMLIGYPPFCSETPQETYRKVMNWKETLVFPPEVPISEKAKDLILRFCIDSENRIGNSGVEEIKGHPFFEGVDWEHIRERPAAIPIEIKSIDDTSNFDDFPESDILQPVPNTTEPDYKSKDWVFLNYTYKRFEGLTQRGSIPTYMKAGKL

Serine/threonine-protein kinase 24, sequence (Q9Y6E0 whole entry, the tested form may be a part): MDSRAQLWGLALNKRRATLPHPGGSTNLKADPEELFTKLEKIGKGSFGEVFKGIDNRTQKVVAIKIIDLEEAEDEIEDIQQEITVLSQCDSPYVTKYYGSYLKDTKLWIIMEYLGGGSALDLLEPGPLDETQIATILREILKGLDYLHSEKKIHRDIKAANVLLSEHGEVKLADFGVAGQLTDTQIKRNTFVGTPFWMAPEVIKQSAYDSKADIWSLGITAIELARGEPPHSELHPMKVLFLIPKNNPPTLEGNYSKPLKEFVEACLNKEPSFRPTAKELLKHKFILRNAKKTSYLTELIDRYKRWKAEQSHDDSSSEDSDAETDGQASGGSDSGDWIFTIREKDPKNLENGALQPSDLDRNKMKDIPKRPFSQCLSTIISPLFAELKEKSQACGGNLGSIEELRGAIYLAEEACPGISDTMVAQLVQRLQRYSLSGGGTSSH
Serine/threonine-protein kinase PAK 6, sequence (Q9NQU5 whole entry): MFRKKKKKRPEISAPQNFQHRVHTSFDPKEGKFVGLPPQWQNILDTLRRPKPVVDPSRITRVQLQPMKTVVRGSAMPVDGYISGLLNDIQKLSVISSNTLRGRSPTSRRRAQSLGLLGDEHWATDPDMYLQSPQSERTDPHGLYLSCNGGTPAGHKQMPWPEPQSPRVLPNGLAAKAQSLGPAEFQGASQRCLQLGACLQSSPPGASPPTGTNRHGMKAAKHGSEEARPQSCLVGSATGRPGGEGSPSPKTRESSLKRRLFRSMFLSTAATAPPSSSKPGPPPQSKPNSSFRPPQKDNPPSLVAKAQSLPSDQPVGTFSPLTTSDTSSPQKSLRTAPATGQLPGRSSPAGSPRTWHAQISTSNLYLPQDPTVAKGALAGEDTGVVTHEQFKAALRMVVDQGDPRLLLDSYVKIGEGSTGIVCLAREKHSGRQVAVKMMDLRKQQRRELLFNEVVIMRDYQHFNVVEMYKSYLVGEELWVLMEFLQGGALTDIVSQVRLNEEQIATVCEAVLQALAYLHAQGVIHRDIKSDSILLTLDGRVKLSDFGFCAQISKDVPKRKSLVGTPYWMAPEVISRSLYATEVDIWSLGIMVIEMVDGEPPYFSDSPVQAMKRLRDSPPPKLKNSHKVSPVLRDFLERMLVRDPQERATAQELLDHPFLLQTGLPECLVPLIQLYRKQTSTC
Serine/threonine-protein kinase pim-2, sequence (Q9P1W9 whole entry): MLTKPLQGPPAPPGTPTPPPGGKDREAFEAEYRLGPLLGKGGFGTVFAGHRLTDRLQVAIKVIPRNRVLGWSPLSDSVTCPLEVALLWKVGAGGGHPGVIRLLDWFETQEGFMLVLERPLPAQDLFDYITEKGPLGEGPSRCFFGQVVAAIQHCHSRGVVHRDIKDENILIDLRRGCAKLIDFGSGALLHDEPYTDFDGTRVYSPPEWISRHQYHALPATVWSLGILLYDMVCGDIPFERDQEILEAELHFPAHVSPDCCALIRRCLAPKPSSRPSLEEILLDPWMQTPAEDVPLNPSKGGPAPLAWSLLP
Uncharacterized aarF domain-containing protein kinase 5, sequence (Q3MIX3 whole entry, the tested form may be a part): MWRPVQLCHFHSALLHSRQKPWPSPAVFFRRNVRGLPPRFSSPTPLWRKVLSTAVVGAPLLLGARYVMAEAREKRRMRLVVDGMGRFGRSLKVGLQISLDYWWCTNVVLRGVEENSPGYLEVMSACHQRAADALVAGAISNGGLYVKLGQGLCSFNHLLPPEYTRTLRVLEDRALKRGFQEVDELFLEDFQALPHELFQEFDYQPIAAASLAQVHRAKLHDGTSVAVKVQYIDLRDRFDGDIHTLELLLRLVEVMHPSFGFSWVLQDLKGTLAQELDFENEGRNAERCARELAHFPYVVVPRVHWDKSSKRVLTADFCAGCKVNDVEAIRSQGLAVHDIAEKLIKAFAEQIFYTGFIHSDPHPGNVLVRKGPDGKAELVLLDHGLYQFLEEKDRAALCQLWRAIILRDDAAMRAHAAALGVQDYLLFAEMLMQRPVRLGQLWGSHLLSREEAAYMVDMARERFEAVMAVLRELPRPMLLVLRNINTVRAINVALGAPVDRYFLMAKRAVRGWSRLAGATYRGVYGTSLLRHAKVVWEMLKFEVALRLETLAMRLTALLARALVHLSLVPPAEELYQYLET
Dual specificity protein kinase CLK3, sequence (P49761 whole entry): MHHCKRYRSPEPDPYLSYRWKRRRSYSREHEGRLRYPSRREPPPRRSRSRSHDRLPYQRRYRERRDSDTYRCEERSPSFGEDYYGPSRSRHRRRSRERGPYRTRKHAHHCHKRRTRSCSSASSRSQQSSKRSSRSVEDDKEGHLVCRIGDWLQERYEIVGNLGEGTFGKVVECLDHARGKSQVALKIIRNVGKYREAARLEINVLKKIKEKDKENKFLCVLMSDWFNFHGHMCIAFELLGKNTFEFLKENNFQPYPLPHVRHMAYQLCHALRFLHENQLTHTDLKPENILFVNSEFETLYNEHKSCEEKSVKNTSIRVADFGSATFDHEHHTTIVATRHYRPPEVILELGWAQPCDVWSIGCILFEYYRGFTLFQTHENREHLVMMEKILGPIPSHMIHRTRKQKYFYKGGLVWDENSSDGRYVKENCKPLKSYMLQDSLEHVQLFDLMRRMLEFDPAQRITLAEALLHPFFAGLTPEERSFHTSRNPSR
Serine/threonine-protein kinase Nek7, sequence (Q8TDX7 whole entry): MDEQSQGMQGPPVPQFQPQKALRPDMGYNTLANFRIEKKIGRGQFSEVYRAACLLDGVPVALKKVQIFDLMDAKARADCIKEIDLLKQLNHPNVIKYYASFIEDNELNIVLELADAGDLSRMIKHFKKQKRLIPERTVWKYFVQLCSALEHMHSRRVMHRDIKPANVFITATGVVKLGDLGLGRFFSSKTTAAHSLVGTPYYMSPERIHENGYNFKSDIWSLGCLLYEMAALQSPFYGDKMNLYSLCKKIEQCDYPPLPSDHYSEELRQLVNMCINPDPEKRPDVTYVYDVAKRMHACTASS
Dual specificity protein kinase CLK4, sequence (Q9HAZ1 whole entry): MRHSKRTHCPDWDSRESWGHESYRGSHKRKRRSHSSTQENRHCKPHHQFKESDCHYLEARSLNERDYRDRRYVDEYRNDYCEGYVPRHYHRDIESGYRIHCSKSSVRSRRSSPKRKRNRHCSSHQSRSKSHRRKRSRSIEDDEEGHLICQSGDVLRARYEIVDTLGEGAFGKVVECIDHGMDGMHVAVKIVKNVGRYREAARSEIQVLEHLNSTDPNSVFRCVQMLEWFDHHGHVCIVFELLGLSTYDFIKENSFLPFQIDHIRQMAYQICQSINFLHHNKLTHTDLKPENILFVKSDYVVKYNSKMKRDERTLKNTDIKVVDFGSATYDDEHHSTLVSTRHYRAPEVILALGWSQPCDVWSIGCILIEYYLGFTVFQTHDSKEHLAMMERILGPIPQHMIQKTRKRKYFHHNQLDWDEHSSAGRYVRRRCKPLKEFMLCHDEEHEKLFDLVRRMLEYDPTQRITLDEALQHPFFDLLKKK
Cell division cycle 7-related protein kinase, sequence (O00311 whole entry): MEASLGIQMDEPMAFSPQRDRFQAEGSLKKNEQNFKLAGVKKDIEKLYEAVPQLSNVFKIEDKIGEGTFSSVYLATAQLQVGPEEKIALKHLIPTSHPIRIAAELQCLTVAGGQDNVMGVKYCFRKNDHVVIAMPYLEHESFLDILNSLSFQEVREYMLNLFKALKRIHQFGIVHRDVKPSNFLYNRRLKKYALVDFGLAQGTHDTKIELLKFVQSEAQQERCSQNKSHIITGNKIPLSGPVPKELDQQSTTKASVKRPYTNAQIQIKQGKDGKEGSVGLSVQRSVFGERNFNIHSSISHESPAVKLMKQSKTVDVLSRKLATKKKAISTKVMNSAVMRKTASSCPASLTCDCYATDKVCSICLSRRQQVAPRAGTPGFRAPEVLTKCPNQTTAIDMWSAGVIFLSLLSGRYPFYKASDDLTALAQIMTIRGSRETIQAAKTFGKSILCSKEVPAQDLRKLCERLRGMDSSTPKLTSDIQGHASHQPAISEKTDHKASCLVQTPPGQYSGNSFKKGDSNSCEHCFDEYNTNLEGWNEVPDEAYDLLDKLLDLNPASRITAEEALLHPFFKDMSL
MAP kinase-activated protein kinase 3, sequence (Q16644 whole entry): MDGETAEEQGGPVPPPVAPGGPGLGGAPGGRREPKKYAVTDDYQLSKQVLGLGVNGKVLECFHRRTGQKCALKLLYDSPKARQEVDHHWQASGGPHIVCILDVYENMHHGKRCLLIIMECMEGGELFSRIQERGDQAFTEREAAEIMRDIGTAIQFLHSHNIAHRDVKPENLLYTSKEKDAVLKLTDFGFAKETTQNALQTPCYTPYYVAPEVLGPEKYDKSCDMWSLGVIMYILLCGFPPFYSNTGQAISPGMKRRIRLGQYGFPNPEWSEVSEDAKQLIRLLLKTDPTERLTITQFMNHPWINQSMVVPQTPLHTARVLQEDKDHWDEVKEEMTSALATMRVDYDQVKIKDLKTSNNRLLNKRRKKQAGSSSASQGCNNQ

Structure (SMILES)	Kd [1]	Kd [2]	Kd [3]	Kd [4]	Kd [5]	Kd [6]	Kd [7]	Kd [8]	Kd [9]	Kd [10]	Kd [11]	Kd [12]	Kd [13]	pKd [6]	Kd (UMP-CMP kinase)	Kd [14]	pKd [3]
C=CC(=O)N1CCC[C@H](n2c(=O)n(-c3ccc(Oc4ccccc4)cc3)c3c(N)ncnc32)C1	> 30 µM (inactive)	> 30 µM (inactive)	> 30 µM (inactive)	> 30 µM (inactive)	> 30 µM (inactive)	> 30 µM (inactive)	> 30 µM (inactive)	> 30 µM (inactive)	> 30 µM (inactive)						> 30 µM (inactive)		
C=CC(=O)Nc1cc2c(Nc3ccc(F)c(Cl)c3)ncnc2cc1C#CC(C)(C)N1CCN(C)CC1 [AV-412 FREE BASE]		> 30 µM (inactive)	> 30 µM (inactive)			> 30 µM (inactive)	> 30 µM (inactive)	> 30 µM (inactive)		> 30 µM (inactive)	> 30 µM (inactive)						
CCn1c(C(=O)N(C2CC2)C2CC2)cc2c3c(ncn3C)c(Nc3cc(C)n(C)n3)nc21 [BMS-911543]	> 30 µM (inactive)	> 30 µM (inactive)	> 30 µM (inactive)	> 30 µM (inactive)		> 30 µM (inactive)	> 30 µM (inactive)		> 30 µM (inactive)	> 30 µM (inactive)		> 30 µM (inactive)	> 30 µM (inactive)		> 30 µM (inactive)		
CC(C)(C)c1nc(-c2cccc(NS(=O)(=O)c3c(F)cccc3F)c2F)c(-c2ccnc(N)n2)s1 [DABRAFENIB]	> 30 µM (inactive)		> 30 µM (inactive)	> 30 µM (inactive)	> 30 µM (inactive)	> 30 µM (inactive)	> 30 µM (inactive)	> 30 µM (inactive)	> 30 µM (inactive)	> 30 µM (inactive)	> 30 µM (inactive)	> 30 µM (inactive)			> 30 µM (inactive)		
O=C(Nc1cc(C(F)(F)F)cc(C(F)(F)F)c1)c1cc(Cl)ccc1O [IMD-0354]	> 30 µM (inactive)						> 30 µM (inactive)		> 30 µM (inactive)	> 30 µM (inactive)		> 30 µM (inactive)	> 30 µM (inactive)			> 30 µM (inactive)	
CCCCCCCCCCCCCCCCCCOP(=O)([O-])OC1CC[N+](C)(C)CC1 [PERIFOSINE]		> 30 µM (inactive)		> 30 µM (inactive)				> 30 µM (inactive)							> 30 µM (inactive)	> 30 µM (inactive)	
CNC(=O)c1cc(Oc2ccc(NC(=O)Nc3cc(C(C)(C)C)nn3-c3ccc4ncccc4c3)c(F)c2)ccn1 [REBASTINIB]	> 30 µM (inactive)					> 30 µM (inactive)		> 30 µM (inactive)		> 30 µM (inactive)	> 30 µM (inactive)		> 30 µM (inactive)				5.60
Cc1cc(Nc2ncnc3ccc(NC4=NC(C)(C)CO4)cc23)ccc1Oc1ccn2ncnc2c1 [TUCATINIB]			> 30 µM (inactive)			> 30 µM (inactive)			> 30 µM (inactive)		> 30 µM (inactive)	> 30 µM (inactive)	> 30 µM (inactive)		> 30 µM (inactive)		

More lines, main results first:

Kd [1]	Kd [2]	Kd [3]	Kd [4]	Kd [5]	Kd [6]	Kd [7]	Kd [8]	Kd [9]	Kd [10]	Kd [11]	Kd [12]	Kd [13]	pKd [6]	Structure (SMILES)	Kd (UMP-CMP kinase)	Kd [14]	pKd [3]
> 30 µM (inactive)	> 30 µM (inactive)	> 30 µM (inactive)	> 30 µM (inactive)		> 30 µM (inactive)	> 30 µM (inactive)	> 30 µM (inactive)		> 30 µM (inactive)	> 30 µM (inactive)	> 30 µM (inactive)			C#Cc1cccc(Nc2ncnc3cc(OC)c(OCCCCCCC(=O)NO)cc23)c1 [CUDC-101]			
	> 30 µM (inactive)	> 30 µM (inactive)			> 30 µM (inactive)	> 30 µM (inactive)	> 30 µM (inactive)		> 30 µM (inactive)	> 30 µM (inactive)	> 30 µM (inactive)			CCS(=O)(=O)N1CCN(c2ccc(Nc3ncc(C(N)=O)c(NC4CC4)n3)cc2)CC1 [Cerdulatinib Hydrochloride]			
	> 30 µM (inactive)		> 30 µM (inactive)		> 30 µM (inactive)				> 30 µM (inactive)	> 30 µM (inactive)				C[C@@H](Oc1cc(-n2cnc3ccc(CN4CCN(C)CC4)cc32)sc1C(N)=O)c1ccccc1C(F)(F)F [GSK-461364]			
	> 30 µM (inactive)				> 30 µM (inactive)	> 30 µM (inactive)		> 30 µM (inactive)			> 30 µM (inactive)	> 30 µM (inactive)		NC1(c2ccc(-c3nc4ccn5c(=O)[nH]nc5c4cc3-c3ccccc3)cc2)CCC1 [MK-2206]	> 30 µM (inactive)		
		> 30 µM (inactive)					> 30 µM (inactive)	> 30 µM (inactive)	> 30 µM (inactive)					FC(F)(F)c1ccc(/C=C/c2nc(COc3ccc(CCCCn4ccnn4)cc3)co2)cc1 [MUBRITINIB]		> 30 µM (inactive)	
> 30 µM (inactive)	> 30 µM (inactive)	> 30 µM (inactive)	> 30 µM (inactive)	> 30 µM (inactive)	> 30 µM (inactive)	> 30 µM (inactive)	> 30 µM (inactive)	> 30 µM (inactive)		> 30 µM (inactive)	> 30 µM (inactive)	> 30 µM (inactive)		Cc1cnc(NC(=O)Nc2cc(Br)c(C)cc2OC[C@@H]2CNCCO2)cn1 [RABUSERTIB]			
	> 30 µM (inactive)		> 30 µM (inactive)		> 30 µM (inactive)				> 30 µM (inactive)	> 30 µM (inactive)	> 30 µM (inactive)			O=C(NOCCO)c1cc(CN2OCCCC2=O)c(F)c(F)c1Nc1ccc(I)cc1F [RO-4987655]			
> 30 µM (inactive)	> 30 µM (inactive)	> 30 µM (inactive)		> 30 µM (inactive)		> 30 µM (inactive)		> 30 µM (inactive)	> 30 µM (inactive)			> 30 µM (inactive)	8.70	COc1cc2c(Nc3ccc(Cl)c(Cl)c3F)ncnc2cc1OC[C@@H]1C[C@@H]2CN(C)C[C@@H]2C1 [TESEVATINIB]			
